Source: publication PMC11203266, “Continuous evolution of compact protein degradation tags regulated by selective molecular glues” (Science (New York, N.Y.), 2024)

What was measured:
[1] = target: T1, DDB1•CRBN (Homo sapiens, UniProt Q96SW2); assay: Competitive fluorescence anisotropy (polarization) vs thalidomide-Cy5; assay type: binding; settings: competition with thalidomide–Cy5; KD estimated from Ki
T1 construct: made in house
Procedure: Competitive fluorescence polarization experiments were performed according to previously reported methods ([65]). All experiments were performed in 25 mM HEPES, […], 1 mM TCEP, pH 7.4. A pre-complexed sample was prepared by incubating DDB1-CRBN (400 nM) with thalidomide–Cy5 conjugate (fig. S2A) (80 nM) at RT for 30 minutes with gentle shaking (220 rpm). […] Polarization values were measured on an Infinite M1000 Pro microplate reader (Tecan) following 1 hour of incubation at RT with gentle shaking. A total of three independent measurements were acquired and averaged per biological sample to generate the values shown in figure S2C. All mP values were normalized between 0 and 100 using the formula NormalizedmP=[(x−minimum)/[…]]∗100 , where ‘‘x’’ is the mP value of the sample and ‘‘minimum’’ and ‘‘maximum’’ are the minimum and maximum mP values, respectively, across all samples. KD values were estimated from computed Ki-values as previously described ([65]).

[2] = tested on: SD40 fusions with Nluc, Fluc, and PRKRA; assay: Immunoblot, degradation of exogenously expressed SD40 fusion proteins in HEK293T cells; assay type: cell-based, human
Procedure: To test the versatility of SD40, we generated five stable HEK293T cell lines that exogenously express N- or C-terminal SD40 fusions with Nluc, Fluc, and the kinase activator PRKRA. […] To investigate whether SD40 targets unintended neosubstrates for degradation, we performed global proteomics using HEK293T cells stably expressing SD40–eGFP.
HEK293T or K562 cells were plated at a density of 1.6 x 10^5 cells/well in a 24-well plate coated with poly-D-lysine (Corning) in 1 mL media (DMEM + 10% FBS for HEK293T cells and RPMI + 10% FBS for K562 cells). After 16–18 hrs, cells were treated with either DMSO or the indicated concentration of small molecules to a 0.5% final concentration of DMSO. Plates were incubated at 37 °C, 5% CO2 for 24 hours for all cell lines except endogenously tagged PLK1–SD40 HEK293T cells, which were incubated for 2 hours. Cells were washed with PBS and then lysed for 30 minutes at 4 °C in radioimmunoprecipitation assay (RIPA; 25 mM Tris-HCl, 150 mM NaCl, 1% NP-40, 1% sodium deoxycholate, 0.1% SDS, pH ~ 7.6) buffer containing 1 mM phenylmethylsulfonyl fluoride (PMSF; Sigma Aldrich) and 1 x EDTA-free protease inhibitor cocktail (Roche). Lysates were centrifuged for 20 min @18,000 x g to isolate the soluble fractions. Protein concentration in clarified lysates was quantified using Pierce BCA Protein Assay Kit (Thermo Scientific) according to the manufacturer’s protocol. Clarified lysates were mixed with NuPAGE LDS Sample Buffer (Thermo NP0007) containing 10 mM DTT and boiled for 10 minutes. Gel electrophoresis was performed on boiled samples using polyacrylamide gels (Invitrogen NP0329BOX) with equal amounts of total protein in each lane. Proteins were transferred to nitrocellulose membranes (Invitrogen IB23001) using the iBlot 2 (Invitrogen IB21001) P0 protocol. After transfer, membranes were blocked in blocking buffer (50 mM Tris-HCl, 150 mM NaCl, 0.5% Tween-20, 1% bovine serum albumin, pH 7.4) for 1 hr at RT and then incubated with primary antibody overnight at 4 °C in blocking buffer. […]

[3] = target: T2, full-length CRBN (Homo sapiens, UniProt Q96SW2); assay: Full-length CRBN MG-PACE circuit luminescence assay; assay type: cell-based; settings: pomalidomide; degron SD0; vs DMSO
T2 construct: Full-length CRBN MG-PACE circuit; expressed in transfected cells; host or cells: E. coli S2060
Text: To evolve ZFs that engage PT-179-bound CRBN, we constructed an MG-PACE circuit using the CRBN•IMiD•ZF molecular glue complex. […] We translationally fused CRBN to the DNA-binding protein RR69 and fused SD0 to the RNAP ω-subunit, then measured transcriptional activation by luminescence (Fig. 2A).
Chemically competent S2060 cells were co-transformed with accessory and complementary plasmids (Table S1).

[4] = target: CRBNCTD (Homo sapiens, UniProt Q96SW2); assay: CRBNCTD MG-PACE circuit luminescence assay; assay type: cell-based; settings: pomalidomide; degron SD0; vs DMSO
Text: We also explored anchoring the circuit with the CRBN C-terminal domain (CTD) alone, which contains the IMiD binding pocket (Fig. 2B) ([65], [69]). […] We attributed the difference in maximum circuit activation to poor expression of full-length CRBN in E. coli. In our initial efforts, we used the CRBNCTD MG-PACE circuit, hypothesizing that higher activation (lower selection stringency) would better support weak-binding SD0 variants in the early stages of evolution.
Chemically competent S2060 cells were co-transformed with accessory and complementary plasmids (Table S1). Cells were plated on LB agar supplemented with carbenicillin, spectinomycin, and tetracycline and grown overnight at 37 °C. Single colonies were seeded in 1 mL DRM with carbenicillin and spectinomycin and grown overnight in a 37 °C shaker at 220 rpm. Overnight cultures were back-diluted 1:100 in DRM with carbenicillin and spectinomycin and grown at 37 °C with shaking until OD600 values reached 0.3-0.4. Polymyxin B nonapeptide (PMBN) was added to a final concentration of 3 μg/mL culture from a 1000x stock (3 mg/mL in DMSO). […] 96-well plates were then incubated in an Infinite M1000 Pro microplate reader (Tecan) at 37 °C with continuous shaking for ~1 hour prior to reading A600 nm and luminescence values. Raw luminescence values were then divided by the corresponding A600 nm values to normalize to cell density.

SMILES	Kd [1]	time at which PRKRA degradation occurred ([2]; 1 μM PT-179, SD40-PRKRA)	time to near complete PRKRA degradation (in words) ([2]; 1 μM PT-179, SD40-PRKRA)	degradation of N- or C-terminal SD40 fusion constructs (in words) ([2]; 24 hrs, 1 nM-10 µM)	maximal transcriptional activation [3]	transcriptional activation at the highest dose [4]
O=C1CCC(N2C(=O)c3ccc(N4CCOCC4)cc3C2=O)C(=O)N1 (stereo not drawn) [PT-179]	587 nM	≤ 10 min	nearly complete within one hour	robust dose-dependent degradation		
Nc1cccc2c1C(=O)N(C1CCC(=O)NC1=O)C2=O (stereo not drawn) [pomalidomide, reference compound]					7 fold	13 fold
